Molecular target: Prothrombin (Homo sapiens, UniProt P00734)
Test: Inhibition of human thrombin by fibrinogen-clot assay

SMILES | IC50
CC(=O)OC[C@]12C[C@@H]3OC(=O)[C@H](CC(=O)C=C(C)C)[C@H]3[C@]1(C)[C@@H](O)C[C@H]1C2=CC[C@@H]2[C@]1(C)CC[C@@H](OC(C)=O)[C@@]2(C)C(=O)O[C@@H]1O[C@H](CO)[C@@H](O)[C@H](O)[C@H]1O | 70 nM
CC(=O)O[C@@H]1CC[C@@]2(C)[C@@H](CC=C3[C@@H]2CC[C@@]2(C)[C@H]4[C@H](C[C@]32C)OC(=O)[C@@H]4CC(=O)C=C(C)C)[C@]1(C)C(=O)O | 18 nM
CC(=O)O[C@@H]1CC[C@@]2(C)[C@@H](CC=C3[C@@H]2C[C@H](O)[C@@]2(C)[C@H]4[C@H](C[C@]32CO)OC(=O)[C@@H]4CC(=O)C=C(C)C)[C@]1(C)C(=O)O[C@@H]1O[C@H](CO)[C@@H](O)[C@H](O)[C@H]1O | 130 nM

Continued, values first:

IC50 | SMILES
50 nM | CC(C)=CC(=O)C[C@H]1C(=O)O[C@H]2C[C@]3(C)C4=CC[C@@H]5[C@](C)(CC[C@H]6OC(=O)[C@@]56C)[C@H]4CC[C@@]3(C)[C@@H]21
90 nM | CC(=O)O[C@@H]1CC[C@@]2(C)[C@@H](CC=C3[C@@H]2C[C@H](O)[C@@]2(C)[C@H]4[C@H](C[C@]32C)OC(=O)[C@@H]4CC(=O)C=C(C)C)[C@]1(C)C(=O)O
